The source of these data is PMC5842274, “Anti-GD2 Immunoliposomes for Targeted Delivery of the Survivin Inhibitor Sepantronium Bromide (YM155) to Neuroblastoma Tumor Cells” (Pharmaceutical Research, 2018).

Data set [1] has as its system KCNR cells. The data set can be described thus: alamarBlue viability assay. It counts as cell-based. The conditions noted are these: 24 h incubation, read-out: IC50 (cell viability). Here is the method: Efficacy of YM155 loaded liposomes (targeted and non-targeted control liposomes) was studied on KCNR by alamarBlue viability assay (Thermo Fischer Scientific), according to the supplier’s instruction. KCNR cells were seeded at 20 × 10^3 cells/well in 96 well Greiner polystyrene plates (Sigma Aldrich) in complete DMEM medium and allowed to adhere overnight. The medium was replaced by cell culture medium supplemented with YM155 or YM155 liposomal formulations at concentrations ranging from 0.8 to 100 nM, after which the cell culture were incubated for 24 h at 37°C. Control experiments included incubations with empty liposomes (i.e. without YM155) at equivalent TL concentrations in the range of 0.08–11 μM TL. After 24 h of incubation, medium was replaced with drug-free medium containing alamarBlue reagent (10 vol%), after which cells were incubated for an extra 3 h at 37°C. Fluorescence was quantified with a microplate reader (Mithras LB940) and used to calculate the relative percentage of living cells normalized against control cells that had not been treated with YM155. IC50 values were calculated by curve fitting using non-linear regression in Graph Pad Prism 6.0.
A general note: The colour change of resazurin is a common sign of viable cells or microbes.

Data set [2] relates to neuroblastoma cell lines. The conditions noted are these: most neuroblastoma cell lines; Table I, no reference given; cited from earlier work.
For data set [3] the following is noted: cited from earlier work.
The conditions of data set [4]: Table I, no reference given; cited from earlier work.
The nature of data set [5]: Pharmacokinetic pilot study, YM155 in blood/plasma after single i.v. administration. The class given is in vivo, mice. The conditions noted are these: for half-life / Vd: 1 mg/kg. Here is the method: (§1) Animal experiments were conducted in compliance with the national regulations and have been approved by the local ethical committee for animal experimentation. NMRI nu/nu female mice (25 g, Charles River, Massachusetts, USA) were housed in a temperature-controlled room (approximately 22°C) with 55 to 65% relative humidity, a photoperiod of 12/12 h with free access to water and pelleted rodent food. The mice were challenged with KCNR neuroblastoma (passage 1–2) derived from DAG102776 by serial xenotransplantation in both flanks. When the tumor growth reached the size of approximately 8 × 8 mm, mice were randomly divided in three groups that were injected intravenously with either free YM155 dissolved in HBS (1 mg/kg, n = 11), YM155 loaded anti-GD2-immunoliposomes (3 μmol TL/kg diluted in HBS, equivalent to 1 mg/kg YM155, n = 11), or an equivalent dose of YM155 loaded control liposomes (n = 11). At designated time points (i.e. 5 min, 9 min, 15 min, 30 min, 1 h, 4 h, 8 h, 24 h, 48 h and 72 h), blood samples (approximately 0.5 ml per sampling time point) were collected in tubes containing EDTA as anticoagulant and mice were sacrificed. Blood samples and excised tumors were stored at −80°C until analysis of their YM155 concentration by liquid chromatography-tandem mass spectrometry (LC-MS/MS) ([34]).
(§2) Pharmacokinetic analysis of the in-vivo data was performed using the Pk Solver 2.0 add-in template for Microsoft Excel, as described previously ([35]). Pharmacokinetic parameters were determined by non-compartmental analysis (NCA) using linear-logarithmic trapezoidal model fitting, or by compartmental analysis (CA) using 1-compartment model fitting.

A short description of data set [6]: Tumor accumulation of YM155 in subcutaneous KCNR tumor xenografts. The class given is in vivo, mice. The conditions noted are these: single i.v. 1 mg/kg. Here is the method:
as §1, with “At designated time points (i.e. 5 min, 9 min, 15 min, 30 min, 1 h, 4 h, 8 h, 24 h, 48 h and 72 h), blood samples (approximately 0.5 ml per sampling time point) were collected in tubes containing EDTA as anticoagulant and mice were sacrificed. Blood samples and excised tumors were stored at −80°C until analysis of their YM155 concentration by liquid chromatography-tandem mass spectrometry (LC-MS/MS) ([34]).” left out
as §2

Read-outs that look alike come from different tables or passages of the source.

Broadly, the IC50 is the concentration that inhibits the measured activity by half. Broadly, the LogP is the decadic logarithm of the partition coefficient of the neutral form, usually between octanol and water. Usually pKa stands for the negative logarithm of the acid dissociation constant. A word on the AUC(0-inf): it is the area under the concentration-time curve extrapolated to infinity. A low value points to less exposure. The clearance is the volume of plasma or blood freed of the substance per unit of time. With `COCCn1c2c([n+](Cc3cnccn3)c1C)C(=O)c1ccccc1C2=O` [YM155, Sepantronium bromide], the values for the IC50 in data set [1] and in data set [2] were 27 nM and “Low nM range for most neuroblastoma cell lines”, respectively. Besides, the Previously reported half-life in data set [3] is reported as ~ 1 h. Moreover, the Plasma half-life in data set [3] (mice and rats) is 60 to 120 min. Besides, the LogP in data set [4] is −3.7. Also, the Solubility in water result in data set [4] is reported as “At least 0,5 mg/ml”. Besides, in data set [4], the pKa is 5.3. This compound also yielded an AUC(0-inf) in data set [5] (female, NMRI nu/nu, mouse, iv, single i.v. 1 mg/kg, NCA, blood/plasma) of 136 ng·h/mL. The half-life in data set [5] (female, NMRI nu/nu, mouse, plasma, iv, single i.v. 1 mg/kg YM155, female mice with KCNR xenografts, non-compartmental analysis, read-out: t1/2 (NCA) (converted)) is 24 min; in data set [5] (female, NMRI nu/nu, mouse, plasma, iv, single i.v. 1 mg/kg, compartmental analysis, 1-compartment model, read-out: CA t1/2 (converted)), 12 min. Further, the Vd in data set [5] (female, NMRI nu/nu, mouse, plasma, iv, single i.v. 1 mg/kg, NCA, read-out: Vss) is 2.47 L/kg; in data set [5] (female, NMRI nu/nu, mouse, plasma, iv, single i.v. 1 mg/kg, NCA, read-out: Vz) it was 4.65 L/kg. For the same compound, the clearance in data set [5] (female, NMRI nu/nu, mouse, plasma, iv, single i.v. 1 mg/kg, NCA) came out at 122 mL/min/kg. Also, the MRT inf in data set [5] (female, NMRI nu/nu, mouse, plasma, iv, single i.v. 1 mg/kg, NCA, read-out: MRT0-∞) amounted to 20.4 min. In data set [5] (single i.v. 1 mg/kg), the “Time plasma levels were detectable post administration” value was “about 8 h”. For the same compound, the “Time intratumor levels of YM155 could be detected post injection” value in data set [6] is on record as “up to 24 h”.
